In this experiment the test system is NF-κ B. Put plainly: Inhibitory activity of NF-κ B activation, luciferase reporter assay in HepG2 under TNF-α stimulation. Format: cell-based, human. The note with it: HepG2, TNF-α (40 ng/ml), 4 hours; for inhibition at 1 µg/mL / inhibition at 10 µg/mL: Homo sapiens; for Inhibitory Ratio of NF-κ B Activation(%) Drug Concentration 1 μg/mL / inhibition at 1 µg/mL: 1 μg/mL; for inhibition at 1 µg/mL: read-out: Inhibitory Ratio of NF-κ B Activation(%) Drug Concentration 1 μg/mL; for Inhibitory Ratio of NF-κ B Activation(%) Drug Concentration 10 μg/mL / inhibition at 10 µg/mL: 10 μg/mL; for inhibition at 10 µg/mL: read-out: Inhibitory Ratio of NF-κ B Activation(%) Drug Concentration 10 μg/mL. The essentials:
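HepG2 cells transiently transfected with a luciferase reporter driven by five tandem NF-κB binding sites, then incubated 6–24 h. Stimulated with TNF-α (40 ng/ml) with or without test compound for 4 h. Intracellular luciferase read by chemiluminescence; inhibition expressed relative to activity without compound.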

For the compound `CC(C)(C)c1ccc(C(C)(C)C)c(NC(=O)c2cc(Cl)ccc2O)c1` [Compound No. 134], the “Inhibitory Ratio of NF-κ B Activation(%) Drug Concentration 1 μg/mL” value came out at 89.1% and the “Inhibitory Ratio of NF-κ B Activation(%) Drug Concentration 10 μg/mL” value amounted to 96.3%.
The like results for `COc1ccc(C(C)(C)C)cc1NC(=O)c1cc(Cl)ccc1OC(C)=O` [Compound No. 136] were, in that order, 91.0% and 99.4%.
Turning to `Cc1cc(C)cc(NC(=O)c2cc(Br)ccc2O)c1` [Compound No. 137], the “Inhibitory Ratio of NF-κ B Activation(%) Drug Concentration 1 μg/mL” value is given as 86.3% and the “Inhibitory Ratio of NF-κ B Activation(%) Drug Concentration 10 μg/mL” value is 92.6%.
On to `CC(C)(C)c1cc(NC(=O)c2cc(Cl)ccc2O)cc(C(C)(C)C)c1` [Compound No. 138, N-{3,5-bis[(1,1-dimethyl)ethyl]phenyl}-5-chloro-2-hydroxybenzamide], for which the inhibition at 1 µg/mL is 89.6% and the inhibition at 10 µg/mL was 98.1%.
Turning to `CC(=O)Oc1ccc(Cl)cc1C(=O)Nc1cc(C(C)(C)C)cc(C(C)(C)C)c1` [Compound No. 139], the “Inhibitory Ratio of NF-κ B Activation(%) Drug Concentration 1 μg/mL” value is 90.8% and the “Inhibitory Ratio of NF-κ B Activation(%) Drug Concentration 10 μg/mL” value was determined as 94.7%.
Take `COc1ccc(-c2ccccc2)cc1NC(=O)c1cc(Cl)ccc1O` [Compound No. 141]: the “Inhibitory Ratio of NF-κ B Activation(%) Drug Concentration 1 μg/mL” value is reported as 82.4% and the “Inhibitory Ratio of NF-κ B Activation(%) Drug Concentration 10 μg/mL” value is reported as 97.9%.
For `COc1ccc(OC)c(NC(=O)c2cc(Br)ccc2O)c1` [Compound No. 142] the same measures were 32.4% and 95.7%.
Regarding `COc1cc(NC(=O)c2cc(Br)ccc2O)cc(OC)c1` [Compound No. 143], the “Inhibitory Ratio of NF-κ B Activation(%) Drug Concentration 1 μg/mL” value worked out at 38.3% and the “Inhibitory Ratio of NF-κ B Activation(%) Drug Concentration 10 μg/mL” value is given as 96.8%.
For `COC(=O)c1cc(NC(=O)c2cc(Br)ccc2O)cc(C(=O)OC)c1` [Compound No. 144, 5-bromo-2-hydroxy-N-[3,5-bis(methoxycarbonyl)phenyl]benzamide], the inhibition at 10 µg/mL is 56.4%.
On to `CC(C)(C)c1cc(NC(=O)c2cc([N+](=O)[O-])ccc2O)cc(C(C)(C)C)c1` [Compound No. 146], for which the “Inhibitory Ratio of NF-κ B Activation(%) Drug Concentration 1 μg/mL” value came out at 91.2% and the “Inhibitory Ratio of NF-κ B Activation(%) Drug Concentration 10 μg/mL” value came out at 98.5%.
For `Cc1ccc(O)c(C(=O)Nc2cc(C(C)(C)C)cc(C(C)(C)C)c2)c1` [Compound No. 147] the same measures were 38.9% and 91.0%.
The like results for `COc1ccc(C(C)(C)C)cc1NC(=O)c1cc(C)ccc1O` [Compound No. 149] were, in that order, 37.4% and 87.1%.
As for `Cc1ccc(C(C)C)cc1NC(=O)c1cc(Cl)ccc1O` [Compound No. 151], the “Inhibitory Ratio of NF-κ B Activation(%) Drug Concentration 1 μg/mL” value is recorded as 85.8% and the “Inhibitory Ratio of NF-κ B Activation(%) Drug Concentration 10 μg/mL” value was 98.2%.
Regarding `CCOc1ccc(OCC)c(NC(=O)c2cc(Cl)ccc2O)c1` [Compound No. 152], the “Inhibitory Ratio of NF-κ B Activation(%) Drug Concentration 1 μg/mL” value stood at 35.1% and the “Inhibitory Ratio of NF-κ B Activation(%) Drug Concentration 10 μg/mL” value amounted to 95.3%.
For the compound `Cc1ccc(C)c(NC(=O)c2cc(Cl)ccc2O)c1` [Compound No. 153], the “Inhibitory Ratio of NF-κ B Activation(%) Drug Concentration 1 μg/mL” value is 88.3% and the “Inhibitory Ratio of NF-κ B Activation(%) Drug Concentration 10 μg/mL” value is 97.1%.
`N#Cc1ccc(Cl)cc1NC(=O)c1cc(Cl)ccc1O` [Compound No. 154]: the “Inhibitory Ratio of NF-κ B Activation(%) Drug Concentration 1 μg/mL” value is 83.0% and the “Inhibitory Ratio of NF-κ B Activation(%) Drug Concentration 10 μg/mL” value turned out to be 93.3%.
Take `CCN(CC)S(=O)(=O)c1ccc(OC)c(NC(=O)c2cc(Cl)ccc2O)c1` [Compound No. 155]: the “Inhibitory Ratio of NF-κ B Activation(%) Drug Concentration 1 μg/mL” value is reported as 11.2% and the “Inhibitory Ratio of NF-κ B Activation(%) Drug Concentration 10 μg/mL” value is 90.2%.
`O=C(Nc1cc([N+](=O)[O-])ccc1Cl)c1cc(Cl)ccc1O` [Compound No. 156]: the “Inhibitory Ratio of NF-κ B Activation(%) Drug Concentration 1 μg/mL” value is listed as 93.8% and the “Inhibitory Ratio of NF-κ B Activation(%) Drug Concentration 10 μg/mL” value is recorded as 95.7%.
Turning to `O=C(Nc1ccccc1)c1ccc(Cl)c(NC(=O)c2cc(Cl)ccc2O)c1` [Compound No. 157], the “Inhibitory Ratio of NF-κ B Activation(%) Drug Concentration 1 μg/mL” value amounted to 52.6% and the “Inhibitory Ratio of NF-κ B Activation(%) Drug Concentration 10 μg/mL” value is on record as 98.8%.
Regarding `COc1ccc(OC)c(NC(=O)c2cc(Cl)ccc2O)c1` [Compound No. 158], the “Inhibitory Ratio of NF-κ B Activation(%) Drug Concentration 1 μg/mL” value was 52.4% and the “Inhibitory Ratio of NF-κ B Activation(%) Drug Concentration 10 μg/mL” value is recorded as 96.8%.
Turning to `COc1ccc(C)c(NC(=O)c2cc(Cl)ccc2O)c1` [Compound No. 160], the “Inhibitory Ratio of NF-κ B Activation(%) Drug Concentration 1 μg/mL” value came to 69.6% and the “Inhibitory Ratio of NF-κ B Activation(%) Drug Concentration 10 μg/mL” value is 96.5%.
`CCCCOc1ccc(OCCCC)c(NC(=O)c2cc(Cl)ccc2O)c1` [Compound No. 161]: the “Inhibitory Ratio of NF-κ B Activation(%) Drug Concentration 1 μg/mL” value is 94.2% and the “Inhibitory Ratio of NF-κ B Activation(%) Drug Concentration 10 μg/mL” value was found to be 97.6%.
The like results for `CC(C)CCOc1ccc(OCCC(C)C)c(NC(=O)c2cc(Cl)ccc2O)c1` [Compound No. 162] were, in that order, 93.8% and 97.9%.
For `COc1ccc(C(N)=O)cc1NC(=O)c1cc(Cl)ccc1O` [Compound No. 163], the “Inhibitory Ratio of NF-κ B Activation(%) Drug Concentration 1 μg/mL” value is on record as 92.1% and the “Inhibitory Ratio of NF-κ B Activation(%) Drug Concentration 10 μg/mL” value is recorded as 97.4%.
Consider `CCC(C)(C)c1ccc(Oc2ccccc2)c(NC(=O)c2cc(Cl)ccc2O)c1` [Compound No. 164], for which the “Inhibitory Ratio of NF-κ B Activation(%) Drug Concentration 1 μg/mL” value came to 97.6% and the “Inhibitory Ratio of NF-κ B Activation(%) Drug Concentration 10 μg/mL” value is 98.3%.
On to `CCCCCCOc1ccc(S(C)(=O)=O)cc1NC(=O)c1cc(Cl)ccc1O` [Compound No. 165], for which the “Inhibitory Ratio of NF-κ B Activation(%) Drug Concentration 1 μg/mL” value is 95.9% and the “Inhibitory Ratio of NF-κ B Activation(%) Drug Concentration 10 μg/mL” value stood at 99.4%.
As to `COc1ccc(-n2cccc2)c(NC(=O)c2cc(Cl)ccc2O)c1` [Compound No. 167], the “Inhibitory Ratio of NF-κ B Activation(%) Drug Concentration 1 μg/mL” value worked out at 76.4% and the “Inhibitory Ratio of NF-κ B Activation(%) Drug Concentration 10 μg/mL” value was determined as 98.7%.
As to `Cc1ccc(S(=O)(=O)c2ccc(Cl)cc2NC(=O)c2cc(Cl)ccc2O)cc1` [Compound No. 168], the “Inhibitory Ratio of NF-κ B Activation(%) Drug Concentration 1 μg/mL” value is reported as 46.7% and the “Inhibitory Ratio of NF-κ B Activation(%) Drug Concentration 10 μg/mL” value was 97.8%.
Take `Cc1ccc(S(=O)(=O)c2ccc(Cl)c(NC(=O)c3cc(Cl)ccc3O)c2)cc1` [Compound No. 169]: the “Inhibitory Ratio of NF-κ B Activation(%) Drug Concentration 1 μg/mL” value turned out to be 31.6% and the “Inhibitory Ratio of NF-κ B Activation(%) Drug Concentration 10 μg/mL” value is 95.9%.
For the compound `COc1ccc(Oc2ccccc2)cc1NC(=O)c1cc(Cl)ccc1O` [Compound No. 171], the “Inhibitory Ratio of NF-κ B Activation(%) Drug Concentration 1 μg/mL” value stood at 90.6% and the “Inhibitory Ratio of NF-κ B Activation(%) Drug Concentration 10 μg/mL” value is listed as 98.1%.
In the case of `Cc1ccc(-c2ccccc2)cc1NC(=O)c1cc(Cl)ccc1O` [Compound No. 172], the “Inhibitory Ratio of NF-κ B Activation(%) Drug Concentration 1 μg/mL” value was 93.7% and the “Inhibitory Ratio of NF-κ B Activation(%) Drug Concentration 10 μg/mL” value was 96.4%.
The like results for `COc1ccc(C(C)(C)c2ccccc2)cc1NC(=O)c1cc(Cl)ccc1O` [Compound No. 173] were, in that order, 86.4% and 98.3%.
For `O=C(Nc1cc(N2CCOCC2)ccc1[N+](=O)[O-])c1cc(Cl)ccc1O` [Compound No. 174], the “Inhibitory Ratio of NF-κ B Activation(%) Drug Concentration 10 μg/mL” value amounted to 89.6%.
`CCCCc1ccc([N+](=O)[O-])cc1NC(=O)c1cc(Cl)ccc1O` [Compound No. 176]: the “Inhibitory Ratio of NF-κ B Activation(%) Drug Concentration 1 μg/mL” value worked out at 96.0% and the “Inhibitory Ratio of NF-κ B Activation(%) Drug Concentration 10 μg/mL” value came out at 99.5%.
`CCC(C)(C)c1ccc(O)c(NC(=O)c2cc(Cl)ccc2O)c1` [Compound No. 177]: the “Inhibitory Ratio of NF-κ B Activation(%) Drug Concentration 1 μg/mL” value was 87.8% and the “Inhibitory Ratio of NF-κ B Activation(%) Drug Concentration 10 μg/mL” value came out at 99.4%.
As for `COc1ccc(C)cc1NC(=O)c1cc(Cl)ccc1O` [Compound No. 178], the “Inhibitory Ratio of NF-κ B Activation(%) Drug Concentration 10 μg/mL” value was determined as 89.7%.
For `O=C(Nc1cc(F)ccc1F)c1cc(Cl)ccc1O` [Compound No. 179], the “Inhibitory Ratio of NF-κ B Activation(%) Drug Concentration 1 μg/mL” value was 92.5% and the “Inhibitory Ratio of NF-κ B Activation(%) Drug Concentration 10 μg/mL” value is on record as 93.4%.
As for `O=C(Nc1cc(F)cc(F)c1)c1cc(Cl)ccc1O` [Compound No. 180], the “Inhibitory Ratio of NF-κ B Activation(%) Drug Concentration 1 μg/mL” value came to 90.7% and the “Inhibitory Ratio of NF-κ B Activation(%) Drug Concentration 10 μg/mL” value is given as 93.7%.
`O=C(Nc1cc(Cl)cc(Cl)c1)c1cc2ccccc2cc1O` [Compound No. 181]: the “Inhibitory Ratio of NF-κ B Activation(%) Drug Concentration 10 μg/mL” value amounted to 95.1%.
Turning to `O=C(Nc1cc(Cl)cc(Cl)c1)c1c(O)ccc2ccccc12` [Compound No. 182], the “Inhibitory Ratio of NF-κ B Activation(%) Drug Concentration 1 μg/mL” value was found to be 85.3% and the “Inhibitory Ratio of NF-κ B Activation(%) Drug Concentration 10 μg/mL” value is 90.2%.
Regarding `COc1ccc(OC)c(NC(=O)c2cc3ccccc3cc2O)c1` [Compound No. 183], the “Inhibitory Ratio of NF-κ B Activation(%) Drug Concentration 10 μg/mL” value is 86.8%.
With `CC(C)(C)c1cc(NC(=O)c2cc(Cl)cnc2O)cc(C(C)(C)C)c1` [Compound No. 184], the “Inhibitory Ratio of NF-κ B Activation(%) Drug Concentration 1 μg/mL” value stood at 53.6% and the “Inhibitory Ratio of NF-κ B Activation(%) Drug Concentration 10 μg/mL” value was found to be 63.8%.
In the case of `CC(C)(C)c1csc(NC(=O)c2cc(Br)ccc2O)n1` [Compound No. 185, 5-Bromo-N-{4-[(1,1-dimethyl)ethyl]thiazol-2-yl}-2-hydroxybenzamide], the inhibition at 1 µg/mL came out at 88.4% and the inhibition at 10 µg/mL was determined as 95.2%.

For the origin of these results see patent US20060089395A1, “Nf-kb activation inhibitors” (priority 2002, published 2006).
